Results from US20090163517A1, “BENZOOXAZOLE, OXAZOLOPYRIDINE, BENZOTHIAZOLE AND THIAZOLOPYRIDINE DERIVATIVES” (priority 2005, published 2009).

Molecular target: T1, human subtype 5 somatostatin receptor (Homo sapiens, UniProt P35346)
T1 construct: host or cells: CHO cell line, stably transfected; membranes prepared by sonication and centrifugation
Assay: SSTR5 radioligand binding on membranes of CHO cells expressing the human receptor (125I-labeled 11-Tyr somatostatin-14 tracer)
Settings: Ki calculated from IC50 by the Cheng-Prussoff equation, 0.05 nM 125I tracer, 1 hour at room temperature, read-out: SSTR 5 Ki
Method: A CHO cell line stably transfected with a plasmid encoding the human subtype 5 somatostatin receptor (GenBank accession number D16827) was obtained from Euroscreen. Cells were cultured and used for binding and functional assays.
Membranes of these cells were prepared by sonication in the presence of protease inhibitors and subsequent fractionating centrifugation. The protein concentration in the membrane preparation was determined using a commercial kit (BCA kit, Pierce, USA). Membranes were stored at −80° C. until use. After thawing, membranes were diluted in assay buffer (50 mM TRIS-HCl at pH 7.4, 5 mM MgCl2 and 0.20% BSA (bovine serum albumine)) and subjected to dounce homogenization.
For binding studies, 0.1 mL membrane suspension, corresponding to app. 6×10^−15 mol receptor, was incubated for 1 hour at room temperature with 0.05 nM ^125I-labeled tracer (11-Tyr somatostatin-14, Perkin-Elmer) and either test compounds in varying concentrations or, for the determination of non-specific binding, 0.001 mM non-labeled somatostatin-14 (Sigma-Aldrich, Buchs, Switzerland). The incubation was stopped by filtration through GF/B glassfiber filters (Unifilter, Perkin-Elmer) and washing with ice-cold wash buffer (50 mM Tris-HCl at pH 7.4). The bound radioactivity was measured after application of a scintillation cocktail (Microscint 40, Perkin-Elmer) and expressed as disintegrations per minute (dpm).
The receptor concentration was determined in a prior saturation experiment where a fixed, arbitrary amount of membranes was incubated with a concentration range of radio-labeled tracer. This allows estimating the total number of specific binding sites per amount of protein (i.e., Bmax), typically between 1 and 5 pmol/mg.
The concentration of the test compound required to result in half maximal inhibition of binding of the radio-labeled tracer (IC50) was estimated from a concentration-versus-dpm graph. The binding affinity (Ki) was calculated from the IC50 by applying the Cheng-Prussoff equation for single binding sites.

T1 sequence (P35346 whole entry): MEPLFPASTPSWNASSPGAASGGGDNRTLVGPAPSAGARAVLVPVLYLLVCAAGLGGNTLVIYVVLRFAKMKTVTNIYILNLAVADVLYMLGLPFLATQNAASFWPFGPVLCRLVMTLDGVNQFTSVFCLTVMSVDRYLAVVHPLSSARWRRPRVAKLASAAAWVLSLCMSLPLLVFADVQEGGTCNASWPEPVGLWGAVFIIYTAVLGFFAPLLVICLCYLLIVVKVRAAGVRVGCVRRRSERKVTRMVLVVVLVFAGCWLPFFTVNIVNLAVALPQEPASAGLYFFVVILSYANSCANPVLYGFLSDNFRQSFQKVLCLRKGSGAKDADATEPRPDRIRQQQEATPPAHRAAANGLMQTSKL

Row | Ki [nM] | Structure (SMILES)
1 | 6 | CCOc1cc(CN2CCC(Nc3nc4c(N)cccc4o3)CC2)cc(OCC)c1-n1cccc1 [Example 23, N^2-[1-(3,5-Diethoxy-4-pyrrol-1-yl-benzyl)-piperidin-4-yl]-benzooxazole-2,4-diamine]
2 | 44 | CCOc1cc(CN2CCC(Nc3nc4ccc(C(=O)O)cc4o3)CC2)cc(OCC)c1N [Example 71, 2-[1-(4-Amino-3,5-diethoxy-benzyl)-piperidin-4-ylamino]-benzooxazole-6-carboxylic Acid]
3 | 223 | CCOc1cc(CN2CCC(Nc3nc4c([N+](=O)[O-])cccc4o3)CC2)ccc1F [Example 73, [1-(3-Ethoxy-4-fluoro-benzyl)-piperidin-4-yl]-(4-nitro-benzooxazol-2-yl)-amine]
